Source: patent US5021438A, “1,3,4,5-tetrahydrobenz(c,d)indoles” (Bayer Aktiengesellschaft, priority 1988, dated 1991)
Structures can show the parent of a compound that is named as a salt.

biological target: 5-HT1 receptor; assay: Affinity for the 5-HT1 receptor (receptor binding, 3H-serotonin radioligand, calf hippocampus membranes); settings: calf hippocampus membrane preparations; 3H-Serotonin as radioligand
Description: Affinity for the 5-HT1 receptor
The high affinity of the compounds according to the invention for 5-hydroxytryptamine receptors of the subtype 1 is represented by way of example in Table 1. The values indicated are data which have been determined from receptor binding studies with calf hippocampus membrane preparations. 3H-Serotonin was used for this as a radioactively labelled ligand.

SMILES | Ki
COc1ccc2[nH]cc3c2c1CC(NCCCCN1C(=O)c2ccccc2S1(=O)=O)C3 (stereo not drawn) [Example 1, 6-Methoxy-4-[4-(N-1,2-benzisothiazol-3(2H)-one-1,1-dioxide-yl)]-butylamino-1,3,4,5-tetrahydrobenz[c,d]indole hydrochloride] | 2 nM
O=C1c2ccccc2S(=O)(=O)N1CCCCNC1Cc2cccc3[nH]cc(c23)C1 (stereo not drawn) [Example 2, 4-[4-(N-1,2-Benzisothiazol-3(2H)-one-1,1-dioxide-yl)]-butylamino-1,3,4,5-tetrahydrobenz[c,d]indole] | 2 nM

Now from value to molecule:

Ki | SMILES
8 nM | CCCN(CCS(=O)(=O)N(C)C)C1Cc2c[nH]c3ccc(OC)c(c23)C1 (stereo not drawn) [Example 15, 6-Methoxy-4-[N-propyl-N-(dimethylsulphamoylethyl)]-amino-1,3,4,5-tetrahydrobenz[c,d]indole]
1 nM | CCCN(CCNS(=O)(=O)c1ccc(C)cc1)C1Cc2c[nH]c3ccc(OC)c(c23)C1 (stereo not drawn) [Example 8, 6-Methoxy-4-[N-propyl-N-(tosylamidoethyl)]-amino-1,3,4,5-tetrahydrobenz[c,d]indole hydrochloride]
6 nM | CCCN(CCNS(C)(=O)=O)C1Cc2c[nH]c3ccc(OC)c(c23)C1 (stereo not drawn) [Example 6, 6-Methoxy-4-[N-propyl-N-(methylsulphonylamidoethyl)]-amino-1,3,4,5-tetrahydrobenz[c,d]indole]
1 nM | CCCN(CCNC(=O)OCC)C1Cc2c[nH]c3ccc(OC)c(c23)C1 (stereo not drawn) [Example 5, 6-Methoxy-4-[N-propyl-N-(ethyloxycarbonylaminoethyl)]amino-1,3,4,5-tetrahydrobenz[c,d]indole]
2 nM | CCCN(CCNS(=O)(=O)c1ccc2ccccc2c1)C1Cc2c[nH]c3ccc(OC)c(c23)C1 (stereo not drawn) [Example 9, 6-Methoxy-4-[N-propyl-N-(naphthylsulphonylamidoethyl)]-amino-1,3,4,5-tetrahydrobenz[c,d]indole hydrochloride]
0.7 nM | COc1ccc2[nH]cc3c2c1CC(NCCCNS(=O)(=O)c1ccc(F)cc1)C3 (stereo not drawn) [Example 18, 6-Methoxy-4-(4-fluorophenylsulphonylamidopropyl)-amino-1,3,4,5-tetrahydrobenz[c,d]indole hydrochloride]

tested on: "behavioral despair" behavior; assay: "behavioral despair" behavior according to Porsolt et al.; assay type: in vivo; settings: according to Porsolt et al. 1977
Description: Furthermore, the antidepressive action properties of the compounds were investigated. For this, the influence of the compounds on the so-called "behavioral despair" behavior was investigated according to Porsolt et al. Arch. Int. Pharmacodyn. Ther. 229, 327 (1977).

SMILES | influence on "behavioral despair" behavior (antidepressive action)
CCCNC1Cc2c[nH]c3ccc(OC)c(c23)C1 (stereo not drawn) [Example 13, 6-Methoxy-4-propylamino-1,3,4,5-tetrahydrobenz[c,d]indole] | positive action
COc1ccc2[nH]cc3c2c1CC(NCCCCN(C)S(=O)(=O)c1ccc(F)cc1)C3 (stereo not drawn) [Example 4, 6-Methoxy-4-[4-(N-4-fluorobenzenesulfonyl-N-methyl)amidobutyl]-amino-1,3,4,5-tetrahydrobenz[c,d]indole hydrochloride] | positive action
CCCCS(=O)(=O)NCCN(CCC)C1Cc2c[nH]c3ccc(OC)c(c23)C1 (stereo not drawn) [Example 7] | positive action
COc1ccc2[nH]cc3c2c1CC(NCCCCN1Cc2ccccc2S1(=O)=O)C3 (stereo not drawn) [Example 3, 6-Methoxy-4-[4-(N-2,3-dihydro-1,2-benzisothiazol-1,1-dioxid-yl)]-butylamino-1,3,4,5-tetrahydrobenz[c,d]indole hydrochloride] | positive action
